Test in all cases: inhibition of tumour cell growth, NCI panel, 48 h
Assay [1] concerns COLO 205.
Assay [2] concerns OVCAR-4.
The test system of assay [3] is NCI-H522.
Assay [4] concerns HCC 2998.
Assay [5] has as its system RXF 393.
In assay [6] the test system is PC-3.
The subject of assay [7] is CAKI-1.
Assay [8] relates to Malme-3M.
In assay [9] the test system is U-251.
Assay [10] deals with SF-539.
Assay [11] deals with HL-60.
For assay [12], the system named is SNB-75.
Assay [13] relates to SF-295.
Assay [14] concerns HT-29.
Assay [15] relates to NCI/ADR-RES.
In assay [16] the test system is TK-10.
Assay [17] concerns DU-145.
For assay [18], the system named is RPMI-8226.
For assay [19], the system named is NCI-H226.
For assay [20], the system named is M14.

This is an account of results in ChEMBL document CHEMBL1201862, “PubChem BioAssay data set” (2004).

The structures appear in SMILES notation.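 Cells were grown in 96-well plates and exposed to each compound for 48 hours at five concentrations; endpoints were interpolated linearly between bracketing concentrations, or set to the highest concentration if not reached. GI50 marks 50% less growth.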 Activity calls are given as the source filed them. Cut-off read from the data, not from the text of the source: active = GI50 up to about 1.1 µM and inactive = higher. Some results are limits rather than exact numbers.

Consider `FC(F)(F)c1n[nH]c(SCc2ccc(Cl)cc2)n1`, for which the GI50 in [1], in assay [2], in assay [3], in assay [4], in [5] and in assay [6] was > 100 µM (inactive) throughout. Further, the GI50 in [7], in assay [8], in [9], in assay [10], in assay [11] and in assay [12] was > 100 µM (inactive) each time. For the same compound, the GI50 in [13], in assay [14], in assay [15], in [16], in assay [17] and in assay [18] was > 100 µM (inactive) throughout. For the same compound, the GI50 in assay [19] and in assay [20] was > 100 µM (inactive) in each case.
In the case of `CS(=O)(=O)N1CC(CI)c2ccc(O)cc21` (stereo unspecified), the GI50 in assay [1] is 2.88 µM (inactive); in [2] it was 1.96 µM (inactive); in assay [3], 1.15 µM (inactive); in assay [4], 2.08 µM (inactive); in assay [5], 1.07 µM (active); in assay [6] it was 2.6 µM (inactive). For the same compound, the GI50 is 1.96 µM (inactive) in assay [7]; 1.93 µM (inactive) in assay [8]; 2.49 µM (inactive) in [9]; 2.99 µM (inactive) in assay [10]; 1.79 µM (inactive) in assay [11]; 1.79 µM (inactive) in assay [12]. The GI50 was 3.51 µM (inactive) in [13]; 3.4 µM (inactive) in assay [14]; 2.75 µM (inactive) in [15]; 2.28 µM (inactive) in assay [16]; 3.05 µM (inactive) in [17]; 1.61 µM (inactive) in [18]. Moreover, the GI50 in [19] is 3.5 µM (inactive).
For the compound `C(/Cc1ccc2c(c1)OCO2)=N\N=C1NCCCN1`, the GI50 is 57 µM (inactive) in assay [1]; 98.9 µM (inactive) in [2]; 55.3 µM (inactive) in [3]; 41.7 µM (inactive) in [4]; 42.9 µM (inactive) in [5]; 36.3 µM (inactive) in assay [6]. Also, the GI50 is 64.4 µM (inactive) in [8]; 75.7 µM (inactive) in [9]; 50.5 µM (inactive) in assay [10]; 31.6 µM (inactive) in assay [11]; 15.2 µM (inactive) in assay [12]; 38.2 µM (inactive) in [13]. The GI50 was 65.5 µM (inactive) in [14]; 84.1 µM (inactive) in assay [15]; > 100 µM (inactive) in assay [16]; 67.5 µM (inactive) in [17]; 56.1 µM (inactive) in assay [18]; > 100 µM (inactive) in [19]. The GI50 in assay [20] is 32.4 µM (inactive).
As for `CCOC(=O)c1ccc(Nc2nc3cc(C(F)(F)F)ccc3nc2-c2ccccc2)cc1`, the GI50 in assay [1] was 42.7 µM (inactive); in [3] it was 37.6 µM (inactive); in [4], 22.8 µM (inactive); in [5], 21.4 µM (inactive); in assay [6], 22.2 µM (inactive); in assay [7], 42.9 µM (inactive). Moreover, the GI50 in assay [8] was > 100 µM (inactive); in assay [9], 21.9 µM (inactive); in [10], 65.5 µM (inactive); in [11], 50.2 µM (inactive); in assay [12] it was 13.5 µM (inactive); in assay [13], 26.7 µM (inactive). Further, the GI50 is > 10 µM (inactive) in assay [14]; 70.5 µM (inactive) in [15]; > 10 µM (inactive) in assay [16]; > 100 µM (inactive) in [17]; > 100 µM (inactive) in assay [18]; > 100 µM (inactive) in assay [19].
For `CCCCc1ccc(Nc2nc3c(ncn3C3CC(O)C(CN=[N+]=[N-])O3)c(=O)[nH]2)cc1` (stereo unspecified), the GI50 in [1], in assay [2], in assay [3], in [4], in [5] and in assay [6] was > 100 µM (inactive) in each case. In addition, the GI50 in assay [7], in assay [8], in assay [9], in [11], in assay [12] and in assay [13] was > 100 µM (inactive) each time. In addition, the GI50 in assay [14], in assay [15], in [17], in assay [18], in assay [19] and in assay [20] was > 100 µM (inactive) throughout.
On to `O=c1[nH]c2ccc(CC(=S)N3CCN(c4ccccc4)CC3)cc2o1`, for which the GI50 in assay [1] is 97.7 µM (inactive); in assay [2], > 100 µM (inactive); in assay [3], 86.7 µM (inactive); in assay [4], > 100 µM (inactive); in assay [5], > 100 µM (inactive); in assay [6] it was > 100 µM (inactive). Also, the GI50 in assay [7] is 97.9 µM (inactive); in assay [8] it was 4.78 µM (inactive); in [9], 41.2 µM (inactive); in assay [10], > 67.8 µM (inactive); in assay [11], 6.18 µM (inactive); in assay [12], > 34 µM (inactive). For the same compound, the GI50 in assay [13] was > 89.3 µM (inactive); in assay [14] it was > 100 µM (inactive); in assay [15], > 44.5 µM (inactive); in assay [16], > 100 µM (inactive); in assay [17], > 100 µM (inactive); in [18], > 66.5 µM (inactive). Further, the values for the GI50 in assay [19] and in assay [20] were > 42 µM (inactive) and > 100 µM (inactive), respectively.
`Nc1ncnc2c1ccn2CC=C(CO)CO`: the GI50 in assay [2], in assay [3], in assay [4], in assay [5], in [6] and in [7] was > 100 µM (inactive) each time. In addition, the GI50 in assay [8], in [9], in assay [10], in assay [11], in assay [12] and in assay [13] was > 100 µM (inactive) each time. In addition, the GI50 is > 100 µM (inactive) in assay [14]; > 100 µM (inactive) in assay [15]; > 100 µM (inactive) in [16]; > 100 µM (inactive) in assay [17]; > 100 µM (inactive) in assay [18]; 8.07 µM (inactive) in assay [19]. The GI50 in [20] was > 100 µM (inactive).
`Cc1ccc(Nc2nnc3n2S(=O)(=O)c2cc(C)c(Cl)cc2S3)cc1`: the GI50 in assay [2] was 22.8 µM (inactive); in [3], 2.18 µM (inactive); in assay [4] it was 18.2 µM (inactive); in [5] it was 10.5 µM (inactive); in assay [6], 4.39 µM (inactive); in assay [7], 23 µM (inactive). The GI50 is 4.66 µM (inactive) in assay [9]; 3.77 µM (inactive) in [10]; 3.48 µM (inactive) in [11]; 6.93 µM (inactive) in assay [12]; 3.22 µM (inactive) in [13]; 10.3 µM (inactive) in [14]. In addition, the GI50 in [15] was 16.1 µM (inactive); in [16] it was 35.2 µM (inactive); in assay [17], 8.09 µM (inactive); in [18], 18.4 µM (inactive); in assay [19], 10.7 µM (inactive); in assay [20], 7.14 µM (inactive).
